In this assay the test system is S. cerevisiae Mot1-301 ts growth rescue, BacTiter-Glo ATP luminescence. In words: growth rescue of Mot1-301 ts yeast, confirmation, SUMOylation pathway inhibitor project, whole organism, S. cerevisiae, Mot1-301 ts mutant, luminescence, dose retest (AID 463204).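 Also: growth at restrictive 38.5 degrees C of Mot1-301 OY566 strain; actives raise luminescence by restoring growth of the ts mutant at high temperature.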

Calls of active or inactive are those of the source.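 The calls were made as follows: active = AC50 no more than ten times the top concentration tested, that is within one log above it; inconclusive = flat curve fit with activity between 30% and 70%, or invalid poor fit; inactive = AC50 beyond ten times the top tested dose.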

Among the data in PubChem BioAssay AID463204 (Broad Institute, 2010) are AC50 values, retold here.

One may read the AC50 as the concentration at which the activity in the assay is half-maximal. As for `CN(C(=S)NC1=CCS(=O)(=O)C1)C1CCCCC1`, the AC50 was > 42 µM (inactive). Turning to `Cc1c(Cl)cccc1NC(=O)Cn1c(CCC(=O)O)ccc1-c1ccccc1`, the AC50 was > 42 µM (inactive). Take `Cc1ccc(C)c(-n2nnnc2SCC(=O)Nc2c(C)n(C)n(-c3ccccc3)c2=O)c1`: the AC50 was > 42 µM (inactive). For the compound `Cc1c(NC(=O)CN2C(=O)NC(C)(c3ccc(OC(F)F)cc3)C2=O)c(=O)n(-c2ccccc2)n1C` (stereo not drawn), the AC50 is > 42 µM (inactive). For the compound `COC(=O)c1sccc1NC(=S)N1CCCCC1`, the AC50 is > 42 µM (inactive). Regarding `COCCN1C(=O)/C(=C/c2cc3c(cc2Br)OCO3)NC1=S`, the AC50 is > 42 µM (inactive).

On to `COc1ccc(CCNC(=O)Cn2nnc(-c3ccc(N4CCOCC4)cc3)n2)cc1OC`, for which the AC50 was > 42 µM (inactive). Consider `O=C(CCC(=O)Nc1ccc(F)cc1)N/N=C/c1cccs1`, for which the AC50 is > 42 µM (inactive). The value for `Cc1ccc(S(=O)(=O)Nc2n[nH]nc2C(=O)NC2CCCCC2)cc1` was > 42 µM (inactive); that for `O=S(=O)(NCc1ccc(Cl)cc1)c1cnc[nH]1` was > 42 µM (inactive). For the compound `c1ccc(N2CCN(C3CCSC3)CC2)cc1` (stereo not drawn), the AC50 was > 42 µM (inactive).

With `O=C1CC(c2ccccc2)c2ccc(O)cc2O1` (stereo not drawn), the AC50 is > 42 µM (inactive). Take `Cc1cccc(N=Nc2ccc(N(C)C)cc2)c1`: the AC50 was > 42 µM (inactive). The value for `O=C(O)c1cccc(N2C(=O)C3C4C=CC(C4=C(c4ccccc4)c4ccccc4)C3C2=O)c1` (stereo not drawn) was > 42 µM (inactive); that for `COc1ccc(NC(=O)Nc2ccccc2C(=O)N2CCCC2)cc1` was > 42 µM (inactive). The result for `CCOC(=O)C1(c2ccccc2)CCN(CCC(=O)Nc2ccccc2OC)CC1` reads > 42 µM (inactive); that for `CSCCc1nc(SCC(=O)Nc2nnc(C)s2)[nH]c1C`, > 42 µM (inactive).

For the compound `CC1=CC2=NC(=O)/C(=C\c3cc(C)n(-c4ccccc4)c3C)C(=N)N2O1`, the AC50 is > 42 µM (inactive). Regarding `COc1cccc(NC(=O)Nc2cc(C(=O)NC(C)C)ccc2N2CC3CC(C2)c2cccc(=O)n2C3)c1` (stereo not drawn), the AC50 was > 42 µM (inactive). In the case of `CCc1cccc(C)c1NC(=O)CSc1nnc(-c2cc3cc(Br)ccc3o2)n1CC`, the AC50 was > 42 µM (inactive). As for `COc1ccc(-c2[nH]nc3c2C(c2ccncc2)C(C#N)=C(N)O3)cc1` (stereo not drawn), the AC50 was > 42 µM (inactive). As to `CC(C)CCn1c(=O)c2ccccc2c2ccccc2c1=O`, the AC50 is > 42 µM (inactive). For the compound `CN1C(=O)c2ccc(NC(=S)NC(=O)C(C)(C)C)cc2C1=O`, the AC50 was > 42 µM (inactive).

As to `Cc1ccc(S(=O)(=O)n2cccc2C)cc1`, the AC50 was > 42 µM (inactive). The result for `CC(=O)Nc1cc2nn(-c3ccccc3)nc2cc1Cl` reads > 42 µM (inactive); that for `CN(C)c1ccc(/C=N\Nc2ccccn2)cc1`, > 42 µM (inactive); that for `N/C(Cn1cncn1)=N\NC(=O)c1ccc(Cl)cc1Cl`, > 42 µM (inactive). As to `Cc1nn(C)cc1S(=O)(=O)Nc1ncccn1`, the AC50 is > 42 µM (inactive).
